Assay results taken from PubChem BioAssay (NCI).
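Cultured in 96-well plates, cells were exposed to test compound for 48 hours across five concentrations. GI50 marks 50% less growth. TGI denotes the concentration required for complete inhibition of growth.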

Experiments:
Assay in all cases: NCI anticancer screen, dose series, 48 h
[1] = test system: BT-549 breast
[2] = test system: NCI-H226 lung
[3] = test system: HL-60(TB) leukemia
[4] = test system: SK-OV-3 ovarian
[5] = test system: SK-MEL-28 melanoma
[6] = test system: HT29 colon
[7] = test system: T-47D breast
[8] = test system: SF-539 CNS
[9] = test system: HOP-62 NSCLC
[10] = test system: CAKI-1 renal
[11] = test system: DU-145 prostate
[12] = test system: MDA-MB-435
[13] = test system: UACC-62 melanoma
[14] = test system: HCC-2998 colon
[15] = test system: SNB-75 CNS
[16] = test system: COLO 205 colon
[17] = test system: TK-10 renal
[18] = test system: SN12C renal
[19] = test system: NCI/ADR-RES ovarian
[20] = test system: SF-295 CNS
[21] = test system: RXF 393 renal
[22] = test system: ACHN renal
[23] = test system: NCI-H522 lung
[24] = test system: NCI-H23 lung
[25] = test system: OVCAR-4 ovarian
[26] = test system: MDA-MB-231 breast
[27] = test system: K-562 leukemia
[28] = test system: SK-MEL-2 melanoma
[29] = test system: UO-31 renal
[30] = test system: PC-3 prostate
[31] = test system: HS 578T breast
[32] = test system: SR leukemia
[33] = test system: M14 melanoma
[34] = test system: SF-268 CNS
[35] = test system: OVCAR-5 ovarian
[36] = test system: A498 renal
[37] = test system: OVCAR-8 ovarian
[38] = test system: RPMI-8226 leukemia
[39] = test system: MOLT-4 leukemia
[40] = test system: SW-620 colon
[41] = test system: HCT-15 colon
[42] = test system: A549 NSCLC
[43] = test system: KM12 colon
[44] = test system: SK-MEL-5 melanoma
[45] = test system: UACC-257 melanoma
[46] = test system: LOX IMVI melanoma
[47] = test system: HOP-92 NSCLC
[48] = test system: HCT-116 colon
[49] = test system: EKVX NSCLC
[50] = test system: MCF7 breast
[51] = test system: 786-0 renal
[52] = test system: U251 CNS
[53] = test system: NCI-H460 lung
[54] = test system: OVCAR-3 ovarian
[55] = test system: IGROV1 ovarian
[56] = test system: SNB-19 CNS
[57] = test system: CCRF-CEM leukemia
[58] = test system: MALME-3M melanoma

`CN(C)c1nc(N)nc(CS)n1` was tested, and the TGI [1] was > 100000 nM, the TGI [2] was > 100000 nM and the TGI [3] was 60600 nM. The TGI [4] was > 100000 nM, the TGI [5] was > 100000 nM and the TGI [6] was > 100000 nM. The TGI [7] was > 100000 nM, the TGI [8] was > 100000 nM and the TGI [9] was > 100000 nM. The TGI [10] was > 100000 nM, the TGI [11] was > 100000 nM and the TGI [12] was > 100000 nM. For the same compound, the TGI [13] was > 100000 nM, the TGI [14] was > 100000 nM and the TGI [15] was > 100000 nM. The TGI [16] was > 100000 nM, the TGI [17] was > 100000 nM and the TGI [18] was > 100000 nM. For the same compound, the TGI [19] was > 100000 nM, the TGI [20] was > 100000 nM and the TGI [21] was > 100000 nM. For the same compound, the TGI [22] was > 100000 nM, the TGI [23] was > 100000 nM and the TGI [24] was > 100000 nM. The TGI [25] was > 100000 nM, the TGI [26] was > 100000 nM and the TGI [27] was > 100000 nM. The TGI [28] was > 100000 nM, the TGI [29] was > 100000 nM and the TGI [30] was > 100000 nM. For the same compound, the TGI [31] was > 100000 nM, the TGI [32] was > 100000 nM and the TGI [33] was > 100000 nM. For the same compound, the TGI [34] was > 100000 nM, the TGI [35] was > 100000 nM and the TGI [36] was > 100000 nM. For the same compound, the TGI [37] was > 100000 nM, the TGI [38] was > 100000 nM and the TGI [39] was > 100000 nM. The TGI [40] was > 100000 nM, the TGI [41] was > 100000 nM and the TGI [42] was > 100000 nM. The TGI [43] was > 100000 nM, the TGI [44] was > 100000 nM and the TGI [45] was > 100000 nM. For the same compound, the TGI [46] was > 100000 nM, the TGI [47] was > 100000 nM and the TGI [48] was > 100000 nM. For the same compound, the TGI [49] was > 100000 nM, the TGI [50] was > 100000 nM and the TGI [51] was > 100000 nM. For the same compound, the TGI [52] was > 100000 nM, the TGI [53] was > 100000 nM and the TGI [54] was > 100000 nM. The TGI [55] was > 100000 nM, the TGI [56] was > 100000 nM and the TGI [57] was 98900 nM.
Work on `Cc1c(Cl)cccc1C(=O)Nc1nc2c(s1)CN(C(=O)c1ccc(C(F)(F)F)cc1)CC2` yielded a GI50 [1] of 331 nM, a TGI [1] of 22900 nM and a GI50 [2] of 157 nM. The GI50 [3] was 108 nM, the TGI [3] was 1250 nM and the GI50 [4] was 227 nM. For the same compound, the TGI [4] was > 50000 nM, the GI50 [5] was 4110 nM and the TGI [5] was > 50000 nM. It also gave a GI50 [6] of 75.3 nM, a TGI [6] of 9200 nM and a GI50 [7] of 199 nM. It also gave a TGI [7] of 28800 nM, a GI50 [8] of 92.3 nM and a TGI [8] of 387 nM. For the same compound, the GI50 [9] was 173 nM, the TGI [9] was > 50000 nM and the GI50 [10] was 71.1 nM. For the same compound, the TGI [10] was > 50000 nM, the GI50 [11] was 194 nM and the TGI [11] was > 50000 nM. It also gave a GI50 [12] of 15.4 nM, a TGI [12] of 52.1 nM and a GI50 [13] of 130 nM. The TGI [13] was > 50000 nM, the GI50 [14] was 200 nM and the TGI [14] was > 50000 nM. For the same compound, the GI50 [15] was 81.4 nM, the TGI [15] was > 50000 nM and the GI50 [16] was 164 nM. The TGI [16] was 762 nM, the GI50 [17] was 934 nM and the TGI [17] was > 50000 nM. For the same compound, the GI50 [18] was 284 nM, the TGI [18] was > 50000 nM and the GI50 [19] was 41.8 nM. For the same compound, the TGI [19] was 2310 nM, the GI50 [20] was 22.4 nM and the TGI [20] was > 50000 nM. The GI50 [22] was 267 nM, the TGI [22] was > 40900 nM and the GI50 [23] was 25.2 nM. For the same compound, the TGI [23] was 2330 nM, the GI50 [24] was 186 nM and the TGI [24] was > 50000 nM. The GI50 [25] was 663 nM, the TGI [25] was > 50000 nM and the GI50 [26] was 344 nM. The TGI [26] was > 50000 nM, the GI50 [27] was 26.1 nM and the TGI [27] was > 50000 nM. For the same compound, the GI50 [28] was 202 nM, the TGI [28] was > 50000 nM and the GI50 [29] was 507 nM. For the same compound, the TGI [29] was > 50000 nM, the GI50 [30] was 117 nM and the TGI [30] was > 50000 nM. The GI50 [31] was 69.9 nM, the TGI [31] was > 50000 nM and the GI50 [32] was 29.4 nM. The TGI [32] was > 50000 nM, the GI50 [33] was 48.3 nM and the TGI [33] was 38400 nM. The GI50 [34] was 565 nM, the TGI [34] was > 50000 nM and the GI50 [35] was 311 nM. The TGI [35] was > 50000 nM, the GI50 [36] was 64 nM and the TGI [36] was 20900 nM. The GI50 [37] was 241 nM, the TGI [37] was > 35300 nM and the GI50 [38] was 198 nM. The TGI [38] was > 34900 nM, the GI50 [39] was 193 nM and the TGI [39] was > 50000 nM. The GI50 [40] was 65.6 nM, the TGI [40] was > 50000 nM and the GI50 [41] was 29.5 nM. For the same compound, the TGI [41] was 21200 nM, the GI50 [42] was 124 nM and the TGI [42] was > 50000 nM. The GI50 [43] was 113 nM, the TGI [43] was > 50000 nM and the GI50 [44] was 175 nM. The TGI [44] was 6010 nM, the GI50 [45] was 2360 nM and the TGI [45] was 23900 nM. For the same compound, the GI50 [46] was 163 nM, the TGI [46] was > 23100 nM and the GI50 [47] was 877 nM. It also gave a TGI [47] of 36400 nM, a GI50 [58] of 515 nM and a TGI [58] of 17800 nM. For the same compound, the GI50 [48] was 101 nM, the TGI [48] was > 18400 nM and the GI50 [49] was 285 nM. The TGI [49] was > 50000 nM, the GI50 [50] was 28.1 nM and the TGI [50] was > 37700 nM. For the same compound, the GI50 [51] was 184 nM, the TGI [51] was > 33300 nM and the GI50 [52] was 145 nM. For the same compound, the TGI [52] was > 35600 nM, the GI50 [53] was 158 nM and the TGI [53] was > 20400 nM. It also gave a GI50 [54] of 58.3 nM, a TGI [54] of 347 nM and a GI50 [55] of 177 nM. For the same compound, the TGI [55] was > 50000 nM, the GI50 [56] was 171 nM and the TGI [56] was > 50000 nM. The GI50 [57] was 135 nM and the TGI [57] was > 50000 nM.
